Measurements: patent US11413281B2, “Ternary conjugate of antitumor drug, and synthesis and application” (priority 2016, dated 2022)
Where no end group is shown, it is not given here.

Key:
[1] = tested on: E-selectin mediated adhesion of THP-I to HUVECs; experiment: Adhesion test of human acute monocytic leukemia cells and endothelial cells; assay type: cell-based; details: THP-I on TNF-α stimulated HUVECs, FIG. 4
Protocol: Example 3. Adhesion Test of Compounds Against Human Acute Monocytic Leukemia Cells and Endothelial Cells
Endothelial cell line HUVEC and human acute monocytic leukemia cell line THP-I were purchased from ATCC and cultured at 37° C. in a 5% CO2 saturated humidity medium, which contains 10% fetal bovine serum, RPMI 1640 with 100 μg/mL penicillin and F-12 with 100 μg/mL streptomycin, the cells were used at logarithmic growth phase.
Polylysine (20 μg/ml) (Shanghai Yuanye Biotechnology Co., Ltd.) was coated on a black 96-well cell culture plate (Corning Incorporated costar 3603) and incubated at 37° C. for 12 h. Endothelial cells HUVECs were seeded at a concentration of […] in black 96-well cell culture plates. After incubation at 37° C. for 36 h, the medium in the cell culture plates was removed. The experimental group was added with F-12 medium with 20 ng/ml TNF-α, F-12 medium without TNF-α was added to the control group, all the groups were incubated for 6 h at 37° C. […] 100 μl permeation solution (BIOSHARP) was added to each well and fluorescence was measured with a Synergy 4 Multiplate Reader (Biotek) (Ex, 485 nm; Em, 528 nm). The inhibitory effect of the candidate compound is inversely proportional to the fluorescence intensity, and the lower the fluorescence value, the stronger the inhibition effect of the compound.

[2] = Self-assembly in aqueous solution (proton NMR in DMSO-d6 vs D2O); assay type: physicochemical; details: HCPT NMR signals disappear in D2O
From the text: The micelles enclose the hydrophobic structure inside. […] This phenomenon also exists in the conjugate of PEG and HCPT, and it is confirmed by dynamic light scattering and transmission electron microscopy, which showing it can form nanospheres or nanorods with about 200 nm diameter.

leukemia cells (K562) = experiment: In vitro anti-tumor activity, MTT assay, K562; assay type: cell-based; details: Homo sapiens, K562, 48 h, read-out: K562 (IC50, μM)
Protocol: (§1) Preparation of MTT solution: MTT dry powder 0.5 g was dissolved in 100 mL PBS buffer, filtered and sterilized with a […] filter, and placed in a refrigerator at −12° C. for storage.
(§2) Three types of tumor cells used in the assay for antitumor activity are human hepatoma cells (HepG2), leukemia cells (K562) and human colon cancer cells (HCT116).
K562 cells were cultured in RPMI1640 cell culture medium containing 1% penicillin-streptomycin solution, 10% fetal bovine serum, and incubated at 37° C. in a constant temperature incubator containing 5% CO2. Specific steps:
The cells were counted using a hemocytometer and diluted to 5×10^4 cells/mL with RPMI medium;
100 μL of cell suspension was added to each well of a 96-well plate, incubated at 37° C. for 2 h.
(§3) The desired test compounds were diluted to 5 concentrations: 2 mM, 0.2 mM, 20 μM, 2 μM, 0.2 μM, and 0.5 μL/well was sequentially added according to the concentration, incubated at 37° C. for 48 h.
MTT was added at a concentration of 5 mg/mL, incubated at 37° C. for 4 hours.
Isopropanol and hydrochloric acid lysis were added, and the OD values at 570 nm and 630 nm were measured with a microplate reader.
(§4) Processing data, calculate IC50 value according to OD value.

[3] = tested on: human hepatoma cells (HepG2); experiment: In vitro anti-tumor activity, MTT assay, HepG2; assay type: cell-based; details: HepG2, 48 h, read-out: HepG2 (IC50, μM)
Protocol: Formulation of DMEM low glucose medium: HyClone MEM low glucose medium, 500 mL per bottle, add 10% fetal bovine serum and 1% solution of penicillin, stored in a refrigerator at 4° C.
as §1, §2
Human Hepatocarcinoma Cell (HepG2) Test
The culture medium for HepG2 cells was DMEM cell culture medium containing 1% penicillin-streptomycin solution and 10% fetal bovine serum, and the culture condition was 37° C. and a constant temperature incubator containing 5% CO2. Specific steps:
The cells were counted using a hemocytometer and diluted with DMEM low glucose to 5×10^4 cells/mL.
(§5) Add 100 μL of cell suspension to each well of a 96-well plate, mix, incubated at 37° C. for 24 h.
as §3
(§6) MTT was added at a concentration of 5 mg/mL, incubated at 37° C. for 4 h.
Cells were lysed by addition of DMSO, and the OD values at 490 nm and 630 nm were measured with a microplate reader. […]

[4] = tested on: human colon cancer cells (HCT116); experiment: In vitro anti-tumor activity, MTT assay, HCT116; assay type: cell-based; details: HCT-116, 48 h, read-out: HCT116 (IC50, μM)
Protocol: Preparation of DMEM/F-12 culture broth: HyClone MEM/F-12 medium, 500 mL per bottle, add 10% fetal bovine serum and 1% solution of penicillin, stored in a refrigerator at 4° C.
as §1, §2
Human colon cancer cell HCT116 test
The culture fluid used for HCT116 cells was a DMEM/F-12 cell culture solution containing 1% penicillin-streptomycin solution, 10% fetal bovine serum. Specific steps:
The cells were counted using a hemocytometer and diluted with DMEM/F-12 medium to 5×10^4 cells/mL.
as §5, §3, §6
Cells were lysed by addition of DMSO, and the OD values at 490 nm and 630 nm were measured with a microplate reader.
as §4

| Molecule | anti-E-selectin mediated cell adhesion in vitro [1] | self-assembly in aqueous solution [2] | IC50 (leukemia cells (K562)) [µM] | IC50 [3] [µM] | IC50 [4] [µM] |
| --- | --- | --- | --- | --- | --- |
| Compound 9 (CIELLQAR-OH; also: Cys1 connects to remainder of compound 9 through SH and amino group) | significant anti-E-selectin mediated cell adhesion | self-assembled into nano-micelles | – | – | – |
| CC[C@@]1(O)C(=O)OCc2c1cc1n(c2=O)Cc2cc3cc(O)ccc3nc2-1 [HCPT, 10-hydroxycamptothecin] | – | – | < 1 | < 1 | < 1 |
